In patent publication US20230391845A1, “GLP-1, GIP AND GLUCAGON RECEPTOR TRIPLE AGONISTS” (priority 2020, published 2023):
*1 amine or outer side, *2 acyl side, *3 side chain or, on linkers, in order; H or OH if unused. Where a SMILES comes first, the peptide text is derived from it. Side-chain parts run from the residue outwards. [ ]: non-standard residue; d: D form. The star is where a group is joined. C18 diacid = O=C(O)CCCCCCCCCCCCCCCCC(=O)*; γGlu = O=C(O)[C@H](CCC(=O)[*:2])N[*:1]; AEEA = NCCOCCOCC(=O)O; Aib = CC(C)(N)C(=O)O

Key:
[1] = Pharmacokinetic study in minipigs, i.v. administration; set-up: species or system Göttingen minipigs; conditions: female, Göttingen, minipig, in vivo, iv
How it was run: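 Terminal half-life, reported as harmonic mean, came from non-compartmental fits of plasma levels measured by antibody assay or LCMS over up to 14 days. Dosing was i.v., typically 1.5-2 nmol/kg, through implanted caval catheters in fasted female Göttingen minipigs of 16-35 kg.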

human GIP receptor = molecular target: T1, human GIP receptor (Homo sapiens, UniProt P48546); experiment: In vitro functional potency (CRE luciferase; whole cells), human GIPR; format: cell-based; conditions: BHK CRE luc2P hGIPR whole cells; Table 1, position of substituent varied; read-out: hGIPR CRE Luc EC50
T1 construct: expressed in transfected cells; host or cells: BHK cells (parent line BHKTS13) containing CRE luciferase
T1 sequence (P48546 22-466): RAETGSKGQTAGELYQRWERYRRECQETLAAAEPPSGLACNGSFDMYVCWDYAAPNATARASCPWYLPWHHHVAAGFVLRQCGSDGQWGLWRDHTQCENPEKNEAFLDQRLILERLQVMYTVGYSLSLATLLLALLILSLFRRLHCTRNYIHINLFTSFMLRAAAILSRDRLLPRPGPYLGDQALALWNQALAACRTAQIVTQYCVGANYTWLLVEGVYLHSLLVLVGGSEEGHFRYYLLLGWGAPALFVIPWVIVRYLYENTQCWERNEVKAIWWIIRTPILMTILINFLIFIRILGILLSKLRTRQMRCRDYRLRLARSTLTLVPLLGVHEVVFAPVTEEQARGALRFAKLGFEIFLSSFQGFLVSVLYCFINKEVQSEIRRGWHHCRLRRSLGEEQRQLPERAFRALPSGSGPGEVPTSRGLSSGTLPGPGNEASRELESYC

human GLP-1 receptor = molecular target: T2, human GLP-1 receptor (Homo sapiens, UniProt P43220); experiment: In vitro functional potency (CRE luciferase; whole cells), human GLP-1R; format: cell-based; conditions: BHK CRE luc2P hGLP-1R whole cells; Table 1, position of substituent varied; read-out: hGLP-1R CRE Luc EC50
T2 construct: expressed in transfected cells; host or cells: BHK cells (parent line BHKTS13) containing CRE luciferase

human Gcg receptor = molecular target: T3, human Gcg receptor (Homo sapiens, UniProt P47871); experiment: In vitro functional potency (CRE luciferase; whole cells), human GcgR; format: cell-based; conditions: BHK CRE luc2P hGcgR whole cells; Table 1, position of substituent varied; read-out: hGcgR CRE Luc EC50
T3 construct: expressed in transfected cells; host or cells: BHK cells (parent line BHKTS13) containing CRE luciferase
T3 sequence (P47871 26-477): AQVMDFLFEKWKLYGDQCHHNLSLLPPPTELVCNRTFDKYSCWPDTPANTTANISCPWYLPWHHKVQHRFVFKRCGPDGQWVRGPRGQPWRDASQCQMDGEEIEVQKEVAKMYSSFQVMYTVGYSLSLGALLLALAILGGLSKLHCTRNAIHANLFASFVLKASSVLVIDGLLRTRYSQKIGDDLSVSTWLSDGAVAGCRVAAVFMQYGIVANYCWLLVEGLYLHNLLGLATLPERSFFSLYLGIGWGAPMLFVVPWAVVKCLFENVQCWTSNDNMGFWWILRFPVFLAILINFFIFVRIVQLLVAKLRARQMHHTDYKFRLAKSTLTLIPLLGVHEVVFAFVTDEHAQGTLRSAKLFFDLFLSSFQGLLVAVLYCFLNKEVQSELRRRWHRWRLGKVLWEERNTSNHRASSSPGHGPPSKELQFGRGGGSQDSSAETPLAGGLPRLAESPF
Procedure: The purpose of this example is to test the functional activity, or potency, of the compounds in vitro at the human and mouse GLP-1, GIP, and Gcg receptors. The in vitro functional potency is the measure of target receptor activation in a whole cell assay.
In vitro functional potency was determined by measuring the response of the target receptor in a reporter gene assay in individual cell lines. The assay was performed in stably transfected BHK cell lines that expresses one of the following G-protein coupled receptors: human GLP-1 receptor, human GIP receptor, human Gcg receptor, mouse GLP-1 receptor, mouse GIP receptor, or mouse Gcg receptor; and where each cell line contains the DNA for the cAMP response element (CRE) coupled to a promoter and the gene for firefly luciferase (CRE luciferase). When the respective receptor is activated, it results in the production of cAMP, which in turn results in expression of the luciferase protein. When assay incubation is completed, luciferase substrate (luciferin) is added resulting in the enzymatic conversion of luciferin to oxyluciferin and producing bioluminescence. The luminescence is measured as the readout for the assay.
The cells lines used in these assays were BHK cells with BHKTS13 as a parent cell line. The cell lines were derived from a clone containing the CRE luciferase element and were established by further transfection with the respective receptor to obtain the relevant cell line.
The cells were cultured at 37° C. with 5% CO2 in Cell Culture Medium. They were aliquoted and stored in liquid nitrogen. The cells were kept in continuous culture and were seeded out the day before each assay.
GLP-1R and GcgR Cell Culture Medium consisted of DMEM medium with 10% FBS, 500 µg/mL G418, and 300 µg/mL hygromycin. GIPR Cell Culture Medium consisted of DMEM medium with 10% FBS, 400 µg/mL G418, and 300 µg/mL hygromycin. Assay Buffer consisted of DMEM w/o phenol red, 10 mM Hepes, 1× Glutamax, 1% ovalbumin, and 0.1% Pluronic F-68.
• 1) Cells were plated at 5000 cells/well and incubated overnight in the assay plate. • 2) Cells were washed once in DPBS. • 3) Stocks of the test compounds and reference compounds in concentrations ranging from 100-300 pM were diluted 1:150 in Assay Buffer.
The data from the microtiter plate reader was first regressed in an Excel in order to calculate the x-axis, log scale concentrations based on the individual test compound's stock concentration and the dilutions of the assay. […] The software performs a non-linear regression (log(agonist) vs response). A minimum of two replicates was measured for each sample. The reported values are averages of the replicates.

T2 sequence (P43220 24-463): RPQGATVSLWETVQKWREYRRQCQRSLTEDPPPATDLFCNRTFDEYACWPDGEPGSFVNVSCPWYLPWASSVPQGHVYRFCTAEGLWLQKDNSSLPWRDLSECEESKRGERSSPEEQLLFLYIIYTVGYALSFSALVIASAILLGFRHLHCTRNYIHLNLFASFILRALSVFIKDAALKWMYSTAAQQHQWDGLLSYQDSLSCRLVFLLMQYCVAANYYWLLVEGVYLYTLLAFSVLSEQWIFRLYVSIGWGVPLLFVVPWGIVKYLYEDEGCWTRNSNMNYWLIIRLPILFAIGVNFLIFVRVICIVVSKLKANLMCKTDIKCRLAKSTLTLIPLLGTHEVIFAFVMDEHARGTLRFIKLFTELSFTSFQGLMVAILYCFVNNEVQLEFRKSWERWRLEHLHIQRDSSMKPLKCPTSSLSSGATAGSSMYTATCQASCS

CC[C@H](C)[C@H](NC(=O)[C@H](CO)NC(=O)[C@H](Cc1ccc(O)cc1)NC(=O)[C@H](CC(=O)O)NC(=O)[C@H](CO)NC(=O)[C@@H](NC(=O)[C@H](Cc1ccccc1)NC(=O)[C@@H](NC(=O)CNC(=O)[C@H](CCC(N)=O)NC(=O)C(C)(C)NC(=O)[C@@H](N)Cc1ccc(O)cc1)[C@@H](C)O)[C@@H](C)O)C(=O)N[C@@H](Cc1ccc(O)cc1)C(=O)N[C@@H](CC(C)C)C(=O)N[C@@H](CC(=O)O)C(=O)N[C@@H](CCCCNC(=O)COCCOCCNC(=O)COCCOCCNC(=O)CC[C@H](NC(=O)CCCCCCCCCCCCCCCCC(=O)O)C(=O)O)C(=O)N[C@@H](CCC(N)=O)C(=O)N[C@@H](C)C(=O)N[C@@H](C)C(=O)NC(C)(C)C(=O)N[C@@H](CCC(=O)O)C(=O)N[C@@H](Cc1ccccc1)C(=O)N[C@H](C(=O)N[C@@H](CC(N)=O)C(=O)N[C@@H](Cc1c[nH]c2ccccc12)C(=O)N[C@@H](CC(C)C)C(=O)N[C@@H](CC(C)C)C(=O)N[C@@H](C)C(=O)NCC(=O)NCC(=O)N1CCC[C@H]1C(=O)N[C@@H](CO)C(=O)N[C@@H](CO)C(=O)NCC(=O)N[C@@H](C)C(=O)N1CCC[C@H]1C(=O)N1CCC[C@H]1C(=O)N1CCC[C@H]1C(=O)N[C@@H](CO)C(N)=O)C(C)C [Compound No. 1] (H-Y[Aib]QGTFTSDYSIYLDK([AEEA-AEEA-γGlu-C18 diacid])QAA[Aib]EFVNWLLAGGPSSGAPPPS-NH2; N-terminus assumed)
half-life [1]: 3660 min
EC50 (human GIP receptor): 0.0237 nM
EC50 (human GLP-1 receptor): 8.6 pM
EC50 (human Gcg receptor): 0.157 nM

CC[C@H](C)[C@H](NC(=O)[C@H](CO)NC(=O)[C@H](Cc1ccc(O)cc1)NC(=O)[C@H](CC(=O)O)NC(=O)[C@H](CO)NC(=O)[C@@H](NC(=O)[C@H](Cc1ccccc1)NC(=O)[C@@H](NC(=O)CNC(=O)[C@H](CCC(N)=O)NC(=O)C(C)(C)NC(=O)[C@@H](N)Cc1ccc(O)cc1)[C@@H](C)O)[C@@H](C)O)C(=O)N[C@@H](Cc1ccc(O)cc1)C(=O)N[C@@H](CC(C)C)C(=O)N[C@@H](CC(=O)O)C(=O)N[C@@H](CCCCN)C(=O)N[C@@H](CCCCNC(=O)COCCOCCNC(=O)COCCOCCNC(=O)CC[C@H](NC(=O)CCCCCCCCCCCCCCCCC(=O)O)C(=O)O)C(=O)N[C@@H](C)C(=O)N[C@@H](C)C(=O)NC(C)(C)C(=O)N[C@@H](CCC(=O)O)C(=O)N[C@@H](Cc1ccccc1)C(=O)N[C@H](C(=O)N[C@@H](CC(N)=O)C(=O)N[C@@H](Cc1c[nH]c2ccccc12)C(=O)N[C@@H](CC(C)C)C(=O)N[C@@H](CC(C)C)C(=O)N[C@@H](C)C(=O)NCC(=O)NCC(=O)N1CCC[C@H]1C(=O)N[C@@H](CO)C(=O)N[C@@H](CO)C(=O)NCC(=O)N[C@@H](C)C(=O)N1CCC[C@H]1C(=O)N1CCC[C@H]1C(=O)N1CCC[C@H]1C(=O)N[C@@H](CO)C(N)=O)C(C)C [Compound No. 2] (H-Y[Aib]QGTFTSDYSIYLDKK([AEEA-AEEA-γGlu-C18 diacid])AA[Aib]EFVNWLLAGGPSSGAPPPS-NH2; N-terminus assumed)
half-life [1]: 2700 min
EC50 (human GIP receptor): 0.0498 nM
EC50 (human GLP-1 receptor): 7.1 pM
EC50 (human Gcg receptor): 0.0476 nM

CC[C@H](C)[C@H](NC(=O)[C@H](CO)NC(=O)[C@H](Cc1ccc(O)cc1)NC(=O)[C@H](CC(=O)O)NC(=O)[C@H](CO)NC(=O)[C@@H](NC(=O)[C@H](Cc1ccccc1)NC(=O)[C@@H](NC(=O)CNC(=O)[C@H](CCC(N)=O)NC(=O)C(C)(C)NC(=O)[C@@H](N)Cc1ccc(O)cc1)[C@@H](C)O)[C@@H](C)O)C(=O)N[C@@H](Cc1ccc(O)cc1)C(=O)N[C@@H](CC(C)C)C(=O)N[C@@H](CC(=O)O)C(=O)N[C@@H](CCCCN)C(=O)N[C@@H](CCC(N)=O)C(=O)N[C@@H](C)C(=O)N[C@@H](C)C(=O)NC(C)(C)C(=O)N[C@@H](CCCCNC(=O)COCCOCCNC(=O)COCCOCCNC(=O)CC[C@H](NC(=O)CCCCCCCCCCCCCCCCC(=O)O)C(=O)O)C(=O)N[C@@H](Cc1ccccc1)C(=O)N[C@H](C(=O)N[C@@H](CC(N)=O)C(=O)N[C@@H](Cc1c[nH]c2ccccc12)C(=O)N[C@@H](CC(C)C)C(=O)N[C@@H](CC(C)C)C(=O)N[C@@H](C)C(=O)NCC(=O)NCC(=O)N1CCC[C@H]1C(=O)N[C@@H](CO)C(=O)N[C@@H](CO)C(=O)NCC(=O)N[C@@H](C)C(=O)N1CCC[C@H]1C(=O)N1CCC[C@H]1C(=O)N1CCC[C@H]1C(=O)N[C@@H](CO)C(N)=O)C(C)C [Compound No. 3] (H-Y[Aib]QGTFTSDYSIYLDKQAA[Aib]K([AEEA-AEEA-γGlu-C18 diacid])FVNWLLAGGPSSGAPPPS-NH2; N-terminus assumed)
half-life [1]: 1980 min
EC50 (human GIP receptor): 0.0275 nM
EC50 (human GLP-1 receptor): 5.4 pM
EC50 (human Gcg receptor): 0.0347 nM
